The target of assay [1] is T1, Growth hormone secretagogue receptor type 1 (Homo sapiens, UniProt Q92847). The experiment in a line: Displacement of [35S]MK677 from human ghrelin receptor expressed in african green monkey COS7 cells. Format: cell-based, COS-7. (Displacement assays read how much labelled ligand stays bound in the presence of the test substance.)
In assay [2] the target is T1, Growth hormone secretagogue receptor type 1. Nature of the assay: Inverse agonist activity at human ghrelin receptor expressed in african green monkey COS7 cells assessed as constitutively stimulated inositol phosphate accumulation. Format: functional, cell-based, COS-7.

By IC50 is commonly meant the midpoint of a concentration-inhibition curve.

T1 sequence (Q92847 whole entry): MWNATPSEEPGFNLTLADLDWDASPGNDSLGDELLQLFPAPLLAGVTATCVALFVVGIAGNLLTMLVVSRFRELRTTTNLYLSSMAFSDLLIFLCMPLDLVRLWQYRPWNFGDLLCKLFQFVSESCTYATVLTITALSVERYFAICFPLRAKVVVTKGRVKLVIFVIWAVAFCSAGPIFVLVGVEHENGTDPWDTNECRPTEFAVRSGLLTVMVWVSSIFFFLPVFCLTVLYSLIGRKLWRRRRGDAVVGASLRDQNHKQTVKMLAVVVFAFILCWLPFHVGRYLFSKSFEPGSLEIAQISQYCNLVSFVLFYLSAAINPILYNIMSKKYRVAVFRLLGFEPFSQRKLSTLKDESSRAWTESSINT

With `CC(C)C[C@H](NC(=O)[C@H](CC(C)C)NC(=O)[C@@H](Cc1c[nH]c2ccccc12)NC(=O)[C@H](Cc1ccccc1)NC(=O)[C@@H](Cc1c[nH]c2ccccc12)NC(=O)[C@@H](N)CCCN=C(N)N)C(N)=O`, the IC50 was found to be 12 nM in assay [1] and 21 nM in assay [2].
On the same counts, the results for `CC(C)C[C@H](NC(=O)[C@H](CC(C)C)NC(=O)[C@@H](Cc1c[nH]c2ccccc12)NC(=O)[C@H](Cc1ccccc1)NC(=O)[C@@H](Cc1c[nH]c2ccccc12)NC(=O)[C@@H](N)Cc1cnc[nH]1)C(N)=O` are 58 nM and 68 nM.

The values are drawn from ChEMBL document CHEMBL1156448, “Identification of an efficacy switch region in the ghrelin receptor responsible for interchange between agonism and inverse agonism” (J Biol Chem, 2007).
